# Measured values from patent US20250213555A1, “SUBSTITUTED TETRAHYDROFURAN ANALOGS AS MODULATORS OF SODIUM CHANNELS” (VERTEX PHARMACEUTICALS INCORPORATED, priority 2021, published 2025).
# Target: human Nav 1.8 (Homo sapiens, UniProt Q9Y5Y9)
# Experiment: E-VIPR assay detecting and measuring Nav inhibition properties
# Format: cell-based
# Details: HEK cells expressing a truncated form of human Nav 1.8; compound numbers without "*" (not marked as run in the presence of human serum); read-out: measured IC50 value in the E-VIPR Assay
# From the text: E-VIPR Assay Detecting and Measuring Nav Inhibition Properties
# Sodium ion channels are voltage-dependent proteins that can be activated by inducing membrane voltage changes by applying electric fields. The electrical stimulation instrument and methods of use, referred to as E-VIPR, are described in International Publication No. WO 2002/008748 A3 and C.-J. Huang et al. Characterization of voltage-gated sodium channel blockers by electrical stimulation and fluorescence detection of membrane potential, 24 Nature Biotech. 439-46 (2006), both of which are incorporated by reference in their entirety. The instrument comprises a microtiter plate handler, an optical system for exciting the coumarin dye while simultaneously recording the coumarin and oxonol emissions, a waveform generator, a current- or voltage-controlled amplifier, and parallel electrode pairs that are inserted into assay plate wells. Under integrated computer control, this instrument passes user-programmed electrical stimulus protocols to cells within the wells of the microtiter plate.
# 16-20 hours prior to running the assay on E-VIPR, HEK cells expressing a truncated form of human Nav 1.8 with full channel activity were seeded into microtiter 384-well plates, pre-coated with matrigel, at a density of 25,000 cells per well. 2.5-5% KIR2.1 Bacmam virus was added to the final cell suspension before seeding into cell plates. HEK cells were grown in Dulbecco's Modified Eagle's Medium (DMEM) supplemented with 10% FBS (Fetal Bovine Serum, qualified; Sigma #F4135), 1% NEAA (Non-Essential Amino Acids, Gibco #11140), 1% HEPES (Gibco #15630), 1% Pen-Strep (Penicillin-Streptomycin; Gibco #15140) and 5 μg/ml Blasticidin (Gibco #R^210-01). Cells were expanded in vented cap cell culture flasks, with 90-95% humidity and 5% CO2.
# 100 mg/mL Pluronic F-127 (Sigma #P2443), in dry DMSO
# Compound Plates: Corning 384-well Polypropylene Round Bottom #3656
# Cell Plates: 384-well tissue culture treated plates (Greiner #781091-2B)
# 2.5-5% KIR 2.1 Bacmam virus (produced in-house), prepared as described in Section 3.3 of J. A. Fornwald et al., Gene Expression in Mammalian Cells Using BacMam, a Modified Baculovirus System, 1350 Methods in Molecular Biology 95-116 (2016), the entire contents of which are incorporated by reference. The concentration used can be dependent on viral titer of each batch.
# 5 mM DiSBAC6(3), a voltage sensitive oxonol acceptor (CAS number 169211-44-3; 5-[3-(1,3-dihexylhexahydro-4,6-dioxo-2-thioxo-5-pyrimidinyl)-2-propen-1-ylidene]-1,3-dihexyldihydro-2-thioxo-4,6 (1H,5H)-pyrimidinedione), in dry DMSO. The preparation of DiSBAC6(3) is analogous to that of DiSBAC4(3) as described in Voltage Sensing by Fluorescence Resonance Energy Transfer in Single Cells, Gonzalez, J. E. and Tsien, R. Y. (1995) Biophys. J. 69, 1272-1280.
# 5 mM CC2-DMPE, a commercially available membrane-bound coumarin phospholipid FRET donor (ThermoFisher Scientific catalog number K1017, CAS number 393782-57-5; tetradecanoic acid, 1,1′-[(1R)-1-[8-(6-chloro-7-hydroxy-2-oxo-2H-1-benzopyran-3-yl)-3-hydroxy-3-oxido-8-oxo-2,4-dioxa-7-aza-3-phosphaoct-1-yl]-1,2-ethanediyl] ester) was prepared in dry DMSO. See also, Improved indicators of cell membrane potential that use fluorescence resonance energy transfer, Gonzalez, J. E. and Tsien, R. Y. (1997) Chem. Biol. 4, 269-277.
# Voltage Assay Background Suppression Compound (VABSC-1) is prepared in H2O (89-363 mM, range used to maintain solubility)
# Human Serum (HS, Millipore #S1P1-01KL, or Sigma SLBR5469V and SLBR5470V as a 50%/50% mixture, for 25% assay final concentration)
# • Sodium Chloride 160 mM (9.35 g/L), Potassium Chloride, 4.5 mM (0.335 g/L), Glucose 10 mM (1.8 g/L), Magnesium Chloride (Anhydrous) 1 mM (0.095 g/L), Calcium Chloride 2 mM (0.222 g/L), HEPES 10 mM (2.38 g/L) in water. […]
# Sequence of human Nav 1.8 (Q9Y5Y9 126-399 limits assumed): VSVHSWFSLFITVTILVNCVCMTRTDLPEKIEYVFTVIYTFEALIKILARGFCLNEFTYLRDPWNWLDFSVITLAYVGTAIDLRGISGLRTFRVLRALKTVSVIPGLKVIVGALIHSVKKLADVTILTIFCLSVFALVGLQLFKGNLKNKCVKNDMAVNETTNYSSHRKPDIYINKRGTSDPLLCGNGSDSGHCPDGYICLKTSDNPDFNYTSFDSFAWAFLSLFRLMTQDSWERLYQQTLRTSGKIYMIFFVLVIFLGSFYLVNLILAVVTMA
# Sequence of human Nav 1.8 (Q9Y5Y9 660-890 limits assumed): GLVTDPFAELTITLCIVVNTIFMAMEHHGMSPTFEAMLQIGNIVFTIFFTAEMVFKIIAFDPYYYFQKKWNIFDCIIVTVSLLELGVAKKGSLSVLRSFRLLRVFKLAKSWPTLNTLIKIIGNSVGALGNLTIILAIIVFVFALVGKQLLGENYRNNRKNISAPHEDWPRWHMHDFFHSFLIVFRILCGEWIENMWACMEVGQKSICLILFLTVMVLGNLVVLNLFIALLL
# Sequence of human Nav 1.8 (Q9Y5Y9 1148-1722 limits assumed): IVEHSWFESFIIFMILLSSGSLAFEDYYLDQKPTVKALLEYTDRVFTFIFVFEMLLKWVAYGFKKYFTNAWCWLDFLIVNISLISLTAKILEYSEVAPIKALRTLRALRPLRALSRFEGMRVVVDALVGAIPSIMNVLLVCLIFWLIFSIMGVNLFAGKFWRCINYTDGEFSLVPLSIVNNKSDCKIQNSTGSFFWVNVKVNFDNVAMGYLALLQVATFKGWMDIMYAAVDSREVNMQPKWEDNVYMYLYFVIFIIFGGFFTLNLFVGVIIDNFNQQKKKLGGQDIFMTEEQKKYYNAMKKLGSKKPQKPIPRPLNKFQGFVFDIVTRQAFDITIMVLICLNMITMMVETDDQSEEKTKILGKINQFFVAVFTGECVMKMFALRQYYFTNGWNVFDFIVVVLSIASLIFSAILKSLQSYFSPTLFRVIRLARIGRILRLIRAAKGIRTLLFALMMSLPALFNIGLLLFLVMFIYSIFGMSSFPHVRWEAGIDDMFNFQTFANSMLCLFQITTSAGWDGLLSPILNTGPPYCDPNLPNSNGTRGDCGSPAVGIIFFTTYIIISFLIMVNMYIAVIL
row,SMILES,IC50 [nM]
1,"COc1c([C@H]2[C@H](C(=O)Nc3nccc(C(=O)N4CCN(C)CC4)n3)O[C@@](C)(C(F)(F)F)[C@H]2C)ccc(F)c1F [Compound 13, (2R,3S,4S,5R)-3-(3,4-difluoro-2-methoxyphenyl)-4,5-dimethyl-N-(4-(4-methylpiperazine-1-carbonyl)pyrimidin-2-yl)-5-(trifluoromethyl)tetrahydrofuran-2-carboxamide]",100 to 1000
2,"COc1c([C@H]2[C@H](C(=O)Nc3ccnc(C(=O)N4CCO[C@H]5CN(C)C[C@H]54)c3)O[C@@](C)(C(F)(F)F)[C@H]2C)ccc(F)c1F [Compound 282, (2R,3S,4S,5R)-3-(3,4-difluoro-2-methoxyphenyl)-4,5-dimethyl-N-(2-((4aR,7aS)-6-methyloctahydropyrrolo[3,4-b][1,4]oxazine-4-carbonyl)pyridin-4-yl)-5-(trifluoromethyl)tetrahydrofuran-2-carboxamide]",< 10
3,"C[C@H]1[C@@H](c2ccc(F)c(F)c2OCCN2CC3(CCOC3)C2)[C@H](C(=O)Nc2ccnc(C(N)=O)c2)O[C@@]1(C)C(F)(F)F [Compound 126, 4-((2R,3S,4S,5R)-3-(2-(2-(6-oxa-2-azaspiro[3.4]octan-2-yl)ethoxy)-3,4-difluorophenyl)-4,5-dimethyl-5-(trifluoromethyl)tetrahydrofuran-2-carboxamido)picolinamide]",10 to 100
4,"COc1c([C@H]2[C@H](C(=O)Nc3ccnc(C(=O)N4CC[C@@H](O)C4)c3)O[C@@](C)(C(F)(F)F)[C@H]2C)ccc(F)c1F [Compound 220, (2R,3S,4S,5R)-3-(3,4-difluoro-2-methoxyphenyl)-N-(2-((R)-3-hydroxypyrrolidine-1-carbonyl)pyridin-4-yl)-4,5-dimethyl-5-(trifluoromethyl)tetrahydrofuran-2-carboxamide]",< 10
5,"C[C@H]1[C@@H](c2ccc(F)c(F)c2OCC(C)(C)CO)[C@H](C(=O)Nc2ccnc(C(N)=O)c2)O[C@@]1(C)C(F)(F)F [Compound 71, 4-((2R,3S,4S,5R)-3-(3,4-difluoro-2-(3-hydroxy-2,2-dimethylpropoxy)phenyl)-4,5-dimethyl-5-(trifluoromethyl)tetrahydrofuran-2-carboxamido)picolinamide]",100 to 1000
6,"COc1c([C@H]2[C@H](C(=O)Nc3ccnc(C(=O)N[C@H]4CN(C)C[C@@H]4OC)c3)O[C@@](C)(C(F)(F)F)[C@H]2C)ccc(F)c1F [Compound 281, 4-((2R,3S,4S,5R)-3-(3,4-difluoro-2-methoxyphenyl)-4,5-dimethyl-5-(trifluoromethyl)tetrahydrofuran-2-carboxamido)-N-((3S,4S)-4-methoxy-1-methylpyrrolidin-3-yl)picolinamide]",10 to 100
7,"C[C@H]1[C@@H](c2ccc(F)c(F)c2OCCn2ccnc2)[C@H](C(=O)Nc2ccnc(C(N)=O)c2)O[C@@]1(C)C(F)(F)F [Compound 45, 4-((2R,3S,4S,5R)-3-(2-(2-(1H-imidazol-1-yl)ethoxy)-3,4-difluorophenyl)-4,5-dimethyl-5-(trifluoromethyl)tetrahydrofuran-2-carboxamido)picolinamide]",< 10
8,"Cc1cnc(C(N)=O)cc1NC(=O)[C@@H]1O[C@@](C)(C(F)(F)F)[C@@H](C)[C@H]1c1ccc(F)c(F)c1OCCN1CC2(COC2)C1 [Compound 181, 4-((2R,3S,4S,5R)-3-(2-(2-(2-oxa-6-azaspiro[3.3]heptan-6-yl)ethoxy)-3,4-difluorophenyl)-4,5-dimethyl-5-(trifluoromethyl)tetrahydrofuran-2-carboxamido)-5-methylpicolinamide]",10 to 100
9,"C[C@H]1[C@@H](c2ccc(F)c(F)c2OCCO)[C@H](C(=O)Nc2ccnc(C(N)=O)c2)O[C@@]1(C)C(F)(F)F [Compound 5, 4-((2R,3S,4S,5R)-3-(3,4-difluoro-2-(2-hydroxyethoxy)phenyl)-4,5-dimethyl-5-(trifluoromethyl)tetrahydrofuran-2-carboxamido) picolinamide]",< 10
10,"CC(C)NCCOc1c([C@H]2[C@H](C(=O)Nc3ccnc(C(N)=O)c3)O[C@@](C)(C(F)(F)F)[C@H]2C)ccc(F)c1F [Compound 115, 4-((2R,3S,4S,5R)-3-(3,4-difluoro-2-(2-(isopropylamino)ethoxy)phenyl)-4,5-dimethyl-5-(trifluoromethyl)tetrahydrofuran-2-carboxamido)picolinamide]",100 to 1000
11,"C[C@H]1[C@@H](c2ccc(F)c(F)c2OCCN2CCC2)[C@H](C(=O)Nc2ccnc(C(N)=O)c2)O[C@@]1(C)C(F)(F)F [Compound 54, 4-((2R,3S,4S,5R)-3-(2-(2-(azetidin-1-yl)ethoxy)-3,4-difluorophenyl)-4,5-dimethyl-5-(trifluoromethyl)tetrahydrofuran-2-carboxamido)picolinamide]",10 to 100
12,"C[C@H]1[C@@H](c2ccc(F)c(F)c2OCCc2cncn2C)[C@H](C(=O)Nc2ccnc(C(N)=O)c2)O[C@@]1(C)C(F)(F)F [Compound 86, 4-((2R,3S,4S,5R)-3-(3,4-difluoro-2-(2-(1-methyl-1H-imidazol-5-yl)ethoxy)phenyl)-4,5-dimethyl-5-(trifluoromethyl)tetrahydrofuran-2-carboxamido)picolinamide]",< 10
13,"C[C@H]1[C@@H](c2ccc(F)c(F)c2OC[C@H]2CCO2)[C@H](C(=O)Nc2ccnc(C(N)=O)c2)O[C@@]1(C)C(F)(F)F (single isomer, unassigned) [Compound 59, rel-4-((2R*,3S*,4S*,5R*)-3-(3,4-difluoro-2-((oxetan-2-yl)methoxy)phenyl)-4,5-dimethyl-5-(trifluoromethyl)tetrahydrofuran-2-carboxamido)picolinamide]",< 10
14,"COc1c([C@H]2[C@H](C(=O)Nc3ccnc(C(=O)NC[C@@H]4CC(F)(F)CN4C)c3)O[C@@](C)(C(F)(F)F)[C@H]2C)ccc(F)c1F [Compound 267, N-(((S)-4,4-difluoro-1-methylpyrrolidin-2-yl)methyl)-4-((2R,3S,4S,5R)-3-(3,4-difluoro-2-methoxyphenyl)-4,5-dimethyl-5-(trifluoromethyl)tetrahydrofuran-2-carboxamido)picolinamide]",100 to 1000
15,"CO[C@H](CO)COc1c([C@H]2[C@H](C(=O)Nc3ccnc(C(N)=O)c3)O[C@@](C)(C(F)(F)F)[C@H]2C)ccc(F)c1F (single isomer, unassigned) [Compound 161, rel-4-((2R*,3S*,4S*,5R*)-3-(3,4-difluoro-2-(3-hydroxy-2-methoxypropoxy)phenyl)-4,5-dimethyl-5-(trifluoromethyl)tetrahydrofuran-2-carboxamido)picolinamide]",10 to 100
16,"C[C@H]1[C@@H](c2ccc(F)c(F)c2OCCN2CCOC3CC32)[C@H](C(=O)Nc2ccnc(C(N)=O)c2)O[C@@]1(C)C(F)(F)F (stereo partly drawn) [Compound 50, 4-((2R,3S,4S,5R)-3-(2-(2-(2-oxa-5-azabicyclo[4.1.0]heptan-5-yl)ethoxy)-3,4-difluorophenyl)-4,5-dimethyl-5-(trifluoromethyl)tetrahydrofuran-2-carboxamido)picolinamide]",< 10
17,CNC(=O)c1cc(NC(=O)[C@@H]2O[C@@](C)(C(F)(F)F)[C@@H](C)[C@H]2c2ccc(F)c(F)c2O[C@H]2C[C@@H](O)C2)ccn1 [Compound 201],10 to 100
